Measurements from PubChem BioAssay (NCI).
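Each compound was tested at five concentrations against cells in 96-well plates for 48 hours. Here, GI50 denotes the concentration required for 50% inhibition of growth. TGI: concentration producing complete growth inhibition.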

Legend:
Assay in all cases: NCI tumour cell line growth inhibition, 48 h
786-0 renal = system: 786-0 renal
A498 renal = system: A498 renal
A549 NSCLC = system: A549 NSCLC
ACHN renal = system: ACHN renal
BT-549 breast = system: BT-549 breast
CAKI-1 renal = system: CAKI-1 renal
CCRF-CEM leukemia = system: CCRF-CEM leukemia
COLO 205 colon = system: COLO 205 colon
DLD-1 colon = system: DLD-1 colon
DMS 114 small cell lung = system: DMS 114 small cell lung
DMS 273 small cell lung = system: DMS 273 small cell lung
DU-145 prostate = system: DU-145 prostate
EKVX NSCLC = system: EKVX NSCLC
HCC-2998 colon = system: HCC-2998 colon
HCT-116 colon = system: HCT-116 colon
HCT-15 colon = system: HCT-15 colon
HL-60(TB) leukemia = system: HL-60(TB) leukemia
HOP-18 NSCLC = system: HOP-18 NSCLC
HOP-62 NSCLC = system: HOP-62 NSCLC
HOP-92 NSCLC = system: HOP-92 NSCLC
HS 578T breast = system: HS 578T breast
HT29 colon = system: HT29 colon
IGROV1 ovarian = system: IGROV1 ovarian
K-562 leukemia = system: K-562 leukemia
KM12 colon = system: KM12 colon
KM20L2 colon = system: KM20L2 colon
LOX IMVI melanoma = system: LOX IMVI melanoma
LXFL 529 NSCLC = system: LXFL 529 NSCLC
M14 melanoma = system: M14 melanoma
M19-MEL melanoma = system: M19-MEL melanoma
MALME-3M melanoma = system: MALME-3M melanoma
MCF7 breast = system: MCF7 breast
MDA-MB-231 breast = system: MDA-MB-231 breast
MDA-MB-435 = system: MDA-MB-435
MDA-N = system: MDA-N
MOLT-4 leukemia = system: MOLT-4 leukemia
NCI-H226 lung = system: NCI-H226 lung
NCI-H23 lung = system: NCI-H23 lung
NCI-H460 lung = system: NCI-H460 lung
NCI-H522 lung = system: NCI-H522 lung
NCI/ADR-RES ovarian = system: NCI/ADR-RES ovarian
OVCAR-3 ovarian = system: OVCAR-3 ovarian
OVCAR-4 ovarian = system: OVCAR-4 ovarian
OVCAR-5 ovarian = system: OVCAR-5 ovarian
OVCAR-8 ovarian = system: OVCAR-8 ovarian
PC-3 prostate = system: PC-3 prostate
RPMI-8226 leukemia = system: RPMI-8226 leukemia
RXF 393 renal = system: RXF 393 renal
RXF-631 renal = system: RXF-631 renal
SF-268 CNS = system: SF-268 CNS
SF-295 CNS = system: SF-295 CNS
SF-539 CNS = system: SF-539 CNS
SK-MEL-2 melanoma = system: SK-MEL-2 melanoma
SK-MEL-28 melanoma = system: SK-MEL-28 melanoma
SK-MEL-5 melanoma = system: SK-MEL-5 melanoma
SK-OV-3 ovarian = system: SK-OV-3 ovarian
SN12C renal = system: SN12C renal
SNB-19 CNS = system: SNB-19 CNS
SNB-75 CNS = system: SNB-75 CNS
SNB-78 CNS = system: SNB-78 CNS
SR leukemia = system: SR leukemia
SW-620 colon = system: SW-620 colon
T-47D breast = system: T-47D breast
TK-10 renal = system: TK-10 renal
U251 CNS = system: U251 CNS
UACC-257 melanoma = system: UACC-257 melanoma
UACC-62 melanoma = system: UACC-62 melanoma
UO-31 renal = system: UO-31 renal
XF 498 CNS = system: XF 498 CNS
P388 leukemia = system: P388 leukemia
P388/ADR leukemia = system: P388/ADR leukemia
SN12K1 renal = system: SN12K1 renal

SMILES: Cc1ccccc1C1=C/C(=C(\SS/C(C(=O)c2ccc(OCC(=O)O)c(Cl)c2Cl)=C2\C=C(c3ccccc3C)SS2)C(=O)c2ccc(OCC(=O)O)c(Cl)c2Cl)SS1
- TGI (786-0 renal): > 70 µM
- TGI (A498 renal): 92.6 µM
- TGI (A549 NSCLC): > 94.2 µM
- TGI (ACHN renal): 65.4 µM
- TGI (BT-549 breast): > 74.1 µM
- TGI (CAKI-1 renal): 72.9 µM
- TGI (CCRF-CEM leukemia): 32.2 µM
- TGI (COLO 205 colon): 47.5 µM
- TGI (DLD-1 colon): > 67.2 µM
- TGI (DMS 114 small cell lung): 24.7 µM
- TGI (DMS 273 small cell lung): 36.7 µM
- TGI (DU-145 prostate): > 100 µM
- TGI (EKVX NSCLC): > 96.5 µM
- TGI (HCC-2998 colon): > 100 µM
- TGI (HCT-116 colon): 56.2 µM
- TGI (HCT-15 colon): 59.4 µM
- TGI (HL-60(TB) leukemia): 7.65 µM
- TGI (HOP-18 NSCLC): 23.3 µM
- TGI (HOP-62 NSCLC): > 100 µM
- TGI (HOP-92 NSCLC): 13.8 µM
- TGI (HS 578T breast): 51.9 µM
- TGI (HT29 colon): 83.7 µM
- TGI (IGROV1 ovarian): 38.5 µM
- TGI (K-562 leukemia): 41.6 µM
- TGI (KM12 colon): 51 µM
- TGI (KM20L2 colon): > 100 µM
- TGI (LOX IMVI melanoma): 21.1 µM
- TGI (LXFL 529 NSCLC): 16.5 µM
- TGI (M14 melanoma): 49.2 µM
- TGI (M19-MEL melanoma): > 56.4 µM
- TGI (MALME-3M melanoma): > 87.6 µM
- TGI (MCF7 breast): > 90.7 µM
- TGI (MDA-MB-231 breast): 47.5 µM
- TGI (MDA-MB-435): > 100 µM
- TGI (MDA-N): > 100 µM
- TGI (MOLT-4 leukemia): 47.6 µM
- TGI (NCI-H226 lung): 42.1 µM
- TGI (NCI-H23 lung): 55.7 µM
- TGI (NCI-H460 lung): 60.2 µM
- TGI (NCI-H522 lung): 16.8 µM
- TGI (NCI/ADR-RES ovarian): > 100 µM
- TGI (OVCAR-3 ovarian): 50.6 µM
- TGI (OVCAR-4 ovarian): 64.3 µM
- TGI (OVCAR-5 ovarian): > 100 µM
- TGI (OVCAR-8 ovarian): 77.1 µM
- TGI (PC-3 prostate): 27.4 µM
- TGI (RPMI-8226 leukemia): 51.2 µM
- TGI (RXF 393 renal): 55.2 µM
- TGI (RXF-631 renal): > 100 µM
- TGI (SF-268 CNS): 45.9 µM
- TGI (SF-295 CNS): 87 µM
- TGI (SF-539 CNS): 44.9 µM
- TGI (SK-MEL-2 melanoma): 42.3 µM
- TGI (SK-MEL-28 melanoma): 69 µM
- TGI (SK-MEL-5 melanoma): 58.6 µM
- TGI (SK-OV-3 ovarian): > 100 µM
- TGI (SN12C renal): 50.6 µM
- TGI (SNB-19 CNS): > 84.5 µM
- TGI (SNB-75 CNS): 84 µM
- TGI (SNB-78 CNS): 51.4 µM
- TGI (SR leukemia): 57.3 µM
- TGI (SW-620 colon): 67.7 µM
- TGI (T-47D breast): 49 µM
- TGI (TK-10 renal): > 85.1 µM
- TGI (U251 CNS): 35.9 µM
- TGI (UACC-257 melanoma): 71.1 µM
- TGI (UACC-62 melanoma): 43.5 µM
- TGI (UO-31 renal): 51.1 µM
- TGI (XF 498 CNS): 42.6 µM

SMILES: Cc1ncc(CO)c(C=NCCCCCCN=Cc2c(CO)cnc(C)c2[O-])c1[O-].[Cu+2]
- TGI (A498 renal): > 100 µM
- TGI (A549 NSCLC): > 100 µM
- TGI (CAKI-1 renal): > 100 µM
- TGI (CCRF-CEM leukemia): > 31.6 µM
- TGI (COLO 205 colon): > 100 µM
- GI50 (DLD-1 colon): > 82.9 µM
- TGI (DLD-1 colon): > 100 µM
- GI50 (DMS 114 small cell lung): > 47.7 µM
- TGI (DMS 114 small cell lung): > 77.6 µM
- GI50 (DMS 273 small cell lung): > 66.9 µM
- TGI (DMS 273 small cell lung): > 100 µM
- TGI (EKVX NSCLC): > 100 µM
- TGI (HCC-2998 colon): > 100 µM
- TGI (HCT-116 colon): > 100 µM
- TGI (HCT-15 colon): > 100 µM
- TGI (HL-60(TB) leukemia): > 100 µM
- GI50 (HOP-18 NSCLC): > 100 µM
- TGI (HOP-18 NSCLC): > 100 µM
- TGI (HOP-62 NSCLC): > 100 µM
- TGI (HOP-92 NSCLC): > 87.9 µM
- TGI (HT29 colon): > 100 µM
- TGI (IGROV1 ovarian): > 100 µM
- TGI (K-562 leukemia): > 100 µM
- TGI (KM12 colon): > 100 µM
- GI50 (KM20L2 colon): > 83.9 µM
- TGI (KM20L2 colon): > 100 µM
- TGI (LOX IMVI melanoma): > 94.3 µM
- GI50 (M19-MEL melanoma): 28.6 µM
- TGI (M19-MEL melanoma): > 31.6 µM
- TGI (MALME-3M melanoma): > 100 µM
- TGI (MCF7 breast): > 100 µM
- TGI (MOLT-4 leukemia): > 100 µM
- TGI (NCI-H226 lung): > 100 µM
- TGI (NCI-H23 lung): > 100 µM
- TGI (NCI-H460 lung): > 100 µM
- TGI (NCI-H522 lung): > 100 µM
- TGI (NCI/ADR-RES ovarian): > 100 µM
- TGI (OVCAR-3 ovarian): > 100 µM
- TGI (OVCAR-4 ovarian): > 100 µM
- TGI (OVCAR-5 ovarian): > 100 µM
- TGI (OVCAR-8 ovarian): > 100 µM
- GI50 (P388 leukemia): 18.9 µM
- TGI (P388 leukemia): 94.2 µM
- GI50 (P388/ADR leukemia): 25.7 µM
- TGI (P388/ADR leukemia): > 100 µM
- TGI (RPMI-8226 leukemia): > 100 µM
- TGI (RXF 393 renal): > 100 µM
- TGI (SF-268 CNS): > 100 µM
- TGI (SF-295 CNS): > 100 µM
- TGI (SF-539 CNS): > 100 µM
- TGI (SK-MEL-2 melanoma): > 100 µM
- TGI (SK-MEL-28 melanoma): > 100 µM
- TGI (SK-MEL-5 melanoma): > 79.1 µM
- TGI (SK-OV-3 ovarian): > 100 µM
- TGI (SN12C renal): > 100 µM
- GI50 (SN12K1 renal): > 100 µM
- TGI (SN12K1 renal): > 100 µM
- TGI (SNB-19 CNS): > 100 µM
- TGI (SNB-75 CNS): > 100 µM
- GI50 (SNB-78 CNS): 41.3 µM
- TGI (SNB-78 CNS): > 100 µM
- TGI (SW-620 colon): > 100 µM
- TGI (U251 CNS): > 70.9 µM
- TGI (UACC-257 melanoma): > 100 µM
- TGI (UACC-62 melanoma): > 100 µM
- TGI (UO-31 renal): > 100 µM
